The target of assay [1] is T1, p53-R172H (Mus musculus, UniProt P02340, R172H).
T1 construct: endogenous in cells; host or cells: mouse embryonic fibroblasts, Trp53-R172H/R172H
The class given is cell-based.

In assay [2] the target is T2, p53-R282W (Homo sapiens, UniProt P04637, R282W).
T2 construct: pcDNA3.1 expressing human full length p53 was gift from Prof; Xin Lu; expressed in transfected cells; host or cells: H1299 (p53-null)
It is filed as cell-based. Particulars: p53-R282W on PUMA promoter, agents 24 hr (FIG. 37 and FIG. 41).

Assay [3] relates to wtp53. The assay can be described thus: Real time qPCR of p53 targets, HCT116 cells. Conditions: HCT116 expressing wtp53. The class given is cell-based, human. For orientation: Real-time PCR tracks product formation cycle by cycle.
Protocol: Total RNA was isolated from cells using Total RNA Purification Kit (B518651, Sangon Biotech). 1 μg total RNA was reverse-transcribed using the GoScript®™ Reverse Transciptase System (A5001, Promega) following manufacturer's protocol. PCR was performed in triplicate using SYBR green mix (Applied Biosystems), and a ViiA™ 7 Real-Time PCR System (Applied Biosystems) under the following conditions: 10 min at 95° C. followed by 40 cycles of 95° C. for 15 s and 60° C. for 1 min. Specificity of the PCR product was checked for each primer set and samples from the melting curve analysis. Expression levels of targeted genes were normalized relative to levels of β-actin adopting comparative Ct method.
Assay [4] relates to NCI60 cell lines. The class given is cell-based, human. Particulars: Struc. / WT / Null / Others, G150 retrieved by CellMiner.

Entries after “also recorded” stand apart in the source; their conditions may differ. Read-outs that look alike come from different tables or passages of the source.

T1 sequence (P02340 whole entry R172H): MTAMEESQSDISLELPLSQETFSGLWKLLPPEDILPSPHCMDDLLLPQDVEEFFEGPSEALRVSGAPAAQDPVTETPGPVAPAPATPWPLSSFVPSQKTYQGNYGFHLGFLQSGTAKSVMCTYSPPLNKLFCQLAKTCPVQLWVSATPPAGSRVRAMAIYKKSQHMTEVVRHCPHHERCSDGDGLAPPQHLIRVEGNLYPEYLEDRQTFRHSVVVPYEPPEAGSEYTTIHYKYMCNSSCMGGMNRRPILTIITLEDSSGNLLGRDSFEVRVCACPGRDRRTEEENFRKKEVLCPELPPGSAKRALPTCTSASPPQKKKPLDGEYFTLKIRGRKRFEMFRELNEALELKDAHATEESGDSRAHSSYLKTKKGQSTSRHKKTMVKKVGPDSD

As for potassium arsenite [NSC3060], the “PAb246 epitope (folded mouse p53-R172H), in words” value in assay [1] was “measurable increase of PAb1620 epitopes and PAb246 (for mouse p53-R172H) epitopes”.

In the case of `C=Cc1nc2ccccc2c(=O)[nH]1` [STIMA-1], in assay [2], the “enhancement of p53 transcriptional activity in luciferase assay” value (“enhancement” for short) is “negligible”.

In the case of `CCn1c2ccccc2c2cc(CNC)ccc21` [PhiKan083], the “enhancement” value in assay [2] is on record as “negligible”.

On to `Cc1c2ccncc2c(C)c2c1[nH]c1ccccc12` [Ellipticine], for which the “enhancement” value in assay [2] was found to be 3.3 times.

Take `OCc1ccc(-c2ccc(-c3ccc(CO)s3)o2)s1` [RITA]: in assay [2], the “enhancement” value is given as “negligible”.

As for `COc1ccc(C2=N[C@@H](c3ccc(Cl)cc3)[C@@H](c3ccc(Cl)cc3)N2C(=O)N2CCNC(=O)C2)c(OC(C)C)c1` [Nutlin3], in assay [3], the “mRNA levels of p53 targets, in words” value was “significantly enhanced PUMA, PIG3, CDKN1A and MDM2 mRNA levels”.

As to `O=C1C2CCN(CC2)C1(CO)CO` [PRIMA-1], the “enhancement” value in assay [2] is listed as “negligible”. In addition, the “selectivity among NCI60 cell lines by p53 status (G150), in words” value in assay [4] was “none of the reported compounds tested, including PRIMA-1 and NSC319726 survived the 4C screening”; in assay [4] (listed as NSC281668) it was “No significant association”.

On to `C/C(=N\NC(=S)N1CCC1)c1ccccn1` [NSC319726], for which the “enhancement” value in assay [2] was found to be 1.5 times. Further, the “selectivity among NCI60 cell lines by p53 status (G150), in words” value in assay [4] is “none of the reported compounds tested, including PRIMA-1 and NSC319726 survived the 4C screening; also recorded: No significant association”.

MIRA-1: in assay [2], the “enhancement” value is listed as “negligible”.

On to `COc1ccc(/C=C/c2nc(NCCCN(C)C)c3ccccc3n2)cc1` [CP31398], for which the “enhancement” value in assay [2] is listed as 1.5 times.

The values above are taken from patent US20210188930A1 (priority 2018, published 2021).
